Reference: PubChem BioAssay AID1918953 (Molecular Pharmacology Branch, DTP, NCI, 2023)

Test system: MDA-MB-231 complex spheroid viability
Assay: Anticancer human tumor MDA-MB-231/ATCC cell line growth inhibition;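 further: drug exposure lasted 7 days starting on day 3 of spheroid growth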
Settings: for IC50: curve of first compound; for viability, T/C: stronger effect = lower value
How it was run: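 Drug combinations with the LSD1 inhibitor iadademstat tested on tumor cells co-cultured as spheroids with endothelial cells and mesenchymal stem cells. Concentrations descended in half-log increments from clinical Cmax or 10 microM.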

[1] = second compound 0.1 µM, first compound 0.000316 µM
[2] = second compound 0.1 µM, first compound 0.001 µM
[3] = second compound 0.1 µM, first compound 0.00316 µM
[4] = second compound 0.1 µM, first compound 0.01 µM
[5] = second compound 0.1 µM, first compound 0.0316 µM
[6] = second compound 0.1 µM, first compound 0.1 µM
[7] = second compound 0.316 µM, first compound 0.000316 µM
[8] = second compound 0.316 µM, first compound 0.001 µM
[9] = second compound 0.316 µM, first compound 0.00316 µM
[10] = second compound 0.316 µM, first compound 0.01 µM
[11] = second compound 0.316 µM, first compound 0.0316 µM
[12] = second compound 0.316 µM, first compound 0.1 µM
[13] = second compound 1 µM, first compound 0.000316 µM
[14] = second compound 1 µM, first compound 0.001 µM
[15] = second compound 1 µM, first compound 0.00316 µM
[16] = second compound 1 µM, first compound 0.01 µM
[17] = second compound 1 µM, first compound 0.0316 µM
[18] = second compound 1 µM, first compound 0.1 µM
[19] = second compound 3.16 µM, first compound 0.000316 µM
[20] = second compound 3.16 µM, first compound 0.001 µM
[21] = second compound 3.16 µM, first compound 0.00316 µM
[22] = second compound 3.16 µM, first compound 0.01 µM
[23] = second compound 3.16 µM, first compound 0.0316 µM
[24] = second compound 3.16 µM, first compound 0.1 µM
[25] = second compound 10 µM, first compound 0.000316 µM
[26] = second compound 10 µM, first compound 0.001 µM
[27] = second compound 10 µM, first compound 0.00316 µM
[28] = second compound 10 µM, first compound 0.01 µM
[29] = second compound 10 µM, first compound 0.0316 µM
[30] = second compound 10 µM, first compound 0.1 µM

Structure (SMILES)	IC50 (second compound 0.1 µM)	IC50 (second compound 0.316 µM)	IC50 (second compound 1 µM)	IC50 (second compound 3.16 µM)	IC50 (second compound 10 µM)	viability, T/C [3]	viability, T/C [4]	viability, T/C [5]	viability, T/C [6]	viability, T/C [9]	viability, T/C [10]	viability, T/C [11]	viability, T/C [12]	viability, T/C [15]	viability, T/C [16]	viability, T/C [17]	viability, T/C [18]	viability, T/C [21]	viability, T/C [22]	viability, T/C [23]	further results
CC(C)CC(NC(=O)C(Cc1ccccc1)NC(=O)c1cnccn1)B(O)O (stereo not given) + NC1CC1c1ccc(-c2cccc(O)c2)cc1	< 0.316 nM	< 0.316 nM	< 0.316 nM	< 0.316 nM	< 0.316 nM	0.68%	0.5%	0.85%	1.08%	0.07%	0.06%	0.07%	0.14%	0.11%	0.08%	0.09%	0.15%	0.12%	0.15%	0.07%	viability, T/C [1]: 29.9%; viability, T/C [2]: 1.88%; viability, T/C [7]: 31.8%; viability, T/C [8]: 0.28%; viability, T/C [13]: 28.9%; viability, T/C [14]: 0.45%; viability, T/C [19]: 25.6%; viability, T/C [20]: 0.41%; viability, T/C [24]: 1.91%; viability, T/C [25]: 18.3%; viability, T/C [26]: 0.24%; viability, T/C [27]: 0.13%; viability, T/C [28]: 0.11%; viability, T/C [29]: 0.12%; viability, T/C [30]: 1.1%
CC(C)CC(NC(=O)CNC(=O)c1cc(Cl)ccc1Cl)B1OC(=O)CC(CC(=O)O)(C(=O)O)O1 (stereo not given) + NC1CC1c1ccc(-c2cccc(O)c2)cc1	4.37 nM	3.09 nM	2.35 nM	2.49 nM	1.01 nM	62.9%	14.6%	1.93%	1.29%	48.4%	11.8%	0.83%	0.29%	44.4%	13.8%	0.95%	0.24%	43.4%	12.7%	0.98%	viability, T/C [1]: 85.1%; viability, T/C [2]: 93.9%; viability, T/C [7]: 67.8%; viability, T/C [8]: 73.3%; viability, T/C [13]: 61.7%; viability, T/C [14]: 66%; viability, T/C [19]: 61.8%; viability, T/C [20]: 73.7%; viability, T/C [24]: 0.37%; viability, T/C [25]: 48%; viability, T/C [26]: 55.2%; viability, T/C [27]: 30.4%; viability, T/C [28]: 7.98%; viability, T/C [29]: 0.83%; viability, T/C [30]: 0.27%
COc1cc(Nc2ncc3c(n2)-c2ccc(Cl)cc2C(c2c(F)cccc2OC)=NC3)ccc1C(=O)O + NC1CC1c1ccc(-c2cccc(O)c2)cc1	< 3.16 nM	< 3.16 nM	< 3.16 nM	< 3.16 nM	< 3.16 nM	43.8%	48.9%	43%	40.8%	40.7%	40%	38.5%	34.7%	37.5%	39.9%	38.3%	38%	41.4%	41.4%	41.1%	viability, T/C (second compound 0.1 µM, first compound 0.316 µM): 32.4%; viability, T/C (second compound 0.1 µM, first compound 1 µM): 21.9%; viability, T/C (second compound 0.316 µM, first compound 0.316 µM): 27.3%; viability, T/C (second compound 0.316 µM, first compound 1 µM): 21.4%; viability, T/C (second compound 1 µM, first compound 0.316 µM): 25.1%; viability, T/C (second compound 1 µM, first compound 1 µM): 18.6%; viability, T/C [24]: 35%; viability, T/C (second compound 3.16 µM, first compound 0.316 µM): 28.1%; viability, T/C (second compound 3.16 µM, first compound 1 µM): 18.9%; viability, T/C [27]: 30.7%; viability, T/C [28]: 33%; viability, T/C [29]: 31.3%; viability, T/C [30]: 31.1%; viability, T/C (second compound 10 µM, first compound 0.316 µM): 22.4%; viability, T/C (second compound 10 µM, first compound 1 µM): 15.7%
